Columns and labels:
[1] = under the conditions investigated in WO 99/18097; cited from earlier work
[2] = Moisture sorption isotherm (SPS-11 moisture sorption analyzer); assay type: physicochemical
Protocol: The moisture sorption isotherm was recorded with a SPS-11 moisture sorption analyzer (MD Mess-technik, Ulm, D). The measurement cycle was started at 0% relative humidity (RH), increased in 10% steps up to 90% RH and in a 5% step up to 95% RH. The equilibrium condition for each step was set to a constant mass±0.003% over 49 min. The temperature was 25±0.1° C.
At ambient conditions form II-S contains approximately 1 mol water (monohydrate). […] The maximum water content peaks at 5.2% at 90% relative humidity, which corresponds to a water mol ratio of 2.0 (FIG. 4).

Row | water content at ambient conditions ([2]; ambient conditions, per mole posaconazole (monohydrate)) | water mol ratio at maximum water content ([2]; at 90% relative humidity, 25 °C, corresponds to the 5.2% water content) | step of water uptake/loss ([2]; between 0 and 10% relative humidity) | maximum water content ([2]; moisture sorption isotherm, at 90% relative humidity, 25 °C) [%] | Structure (SMILES) | stability of the crystalline form [1]
1 | – | – | – | – | CC[C@@H]([C@H](C)O)n1ncn(-c2ccc(N3CCN(c4ccc(OC[C@@H]5CO[C@@](Cn6cncn6)(c6ccc(F)cc6F)C5)cc4)CC3)cc2)c1=O [form II, posaconazole] | unstable
2 | approximately 1 mol water | 2.0 | over 0.5 mol water | 5.2 | CC[C@@H]([C@H](C)O)n1ncn(-c2ccc(N3CCN(c4ccc(OC[C@@H]5CO[C@@](Cn6cncn6)(c6ccc(F)cc6F)C5)cc4)CC3)cc2)c1=O [form II-S, 2,5-anhydro-1,3,4-trideoxy-2-C-(2,4-difluorophenyl)-4-[[4-[4-[4-[1-[(1S,2S)-1-ethyl-2-hydroxypropyl]-1,5-dihydro-5-oxo-4H-1,2,4-triazol-4-yl]phenyl]-1-piperazinyl]phenoxy]methyl]-1-(1H-1,2,4-triazol-1-yl)-D-threo-pentitol] | –

Source: patent US20120101277A1, “CRYSTALLINE FORM OF POSACONAZOLE” (SANDOZ AG, priority 2009, published 2012)
